ChEMBL document CHEMBL1177713, “Discovery of 3-[2-(imidazo[1,2-b]pyridazin-3-yl)ethynyl]-4-methyl-N-{4-[(4-methylpiperazin-1-yl)methyl]-3-(trifluoromethyl)phenyl}benzamide (AP24534), a potent, orally active pan-inhibitor of breakpoint cluster region-abelson (BCR-ABL) kinase including the T315I gatekeeper mutant” (J Med Chem, 2010)
pIC50: −log10 of the molar value.

Columns and labels:
BaF3 [1] = experiment: cells; conditions: Mus musculus, BaF3, 72 h
Description: Antiproliferative activity against mouse BA/F3 cells expressing wild type ABL after 3 days by MTS assay

BaF3 [2] = experiment: cells; conditions: Mus musculus, BaF3, 72 h; remark: listed apart in the source
Description: Antiproliferative activity against mouse BA/F3 cells after 3 days by MTS assay

BaF3 [3] = experiment: cells; conditions: Mus musculus, BaF3, 72 h; remark: listed apart in the source
Description: Antiproliferative activity against mouse BA/F3 cells expressing ABL T315I mutant after 3 days by MTS assay

[4] = Half life in CD rat at 15 mg/kg, po by LC-MS/MS analysis; format: ADME, organism-based; design: dose 15 mg/kg, route oral; conditions: in vivo
Rattus norvegicus = experiment: Dose normalized AUC (0 to 24 hrs) in CD rat at 15 mg/kg, po by LC-MS/MS analysis; format: ADME, organism-based; design: time < 24 hr, dose 15 mg/kg, route oral; conditions: in vivo
[5] = Cmax in CD rat at 15 mg/kg, po by LC-MS/MS analysis; format: ADME, organism-based; design: dose 15 mg/kg, route oral; conditions: CD, in vivo
[6] = Clearance in CD rat at 5 mg/kg, iv by LC-MS/MS analysis; format: ADME, organism-based; design: dose 5 mg/kg, route intravenous; conditions: in vivo
[7] = Oral bioavailability in CD rat at 15 mg/kg by LC-MS/MS analysis; format: ADME, organism-based; conditions: in vivo
[8] = Half life in mouse at 30 mg/kg, po by LC-MS/MS analysis; conditions: in vivo
[9] = Half life in CD rat at 5 mg/kg, iv by LC-MS/MS analysis; format: ADME, organism-based; design: dose 5 mg/kg, route intravenous; conditions: in vivo
[10] = Cmax in mouse at 30 mg/kg, po by LC-MS/MS analysis; conditions: in vivo
[11] = Tmax in CD rat at 15 mg/kg, po by LC-MS/MS analysis; format: ADME, organism-based; design: dose 15 mg/kg, route oral; conditions: in vivo
[12] = AUC (0 to 24 hrs) in mouse at 30 mg/kg, po by LC-MS/MS analysis; conditions: plasma
BaF3 [13] = experiment: cells; conditions: Mus musculus, BaF3, 72 h; remark: listed apart in the source
Description: Antiproliferative activity against mouse BA/F3 cells expressing wild type ABL after 3 days by MTS assay in presence of 340 uM human serum albumin

[14] = Volume of distribution in CD rat at 5 mg/kg, iv by LC-MS/MS analysis; format: ADME, organism-based; design: dose 5 mg/kg, route intravenous; conditions: in vivo

| SMILES | pIC50 (BaF3 [1]) | pIC50 (BaF3 [2]) | pIC50 (BaF3 [3]) | further results |
| --- | --- | --- | --- | --- |
| Cc1ccc(C(=O)Nc2ccc(CN3CCCN(C)CC3)c(C(F)(F)F)c2)cc1C#Cc1cnc2ccccn12 | 8.08 | 5.73 | 6.80 | – |
| Cc1ccc(C(=O)Nc2cc(C(F)(F)F)ccn2)cc1C#Cn1cnc2c(NC3CC3)ncnc21 | 8.70 | – | 6.26 | half-life [4]: 1.5 h; AUC (Rattus norvegicus): 11.8 ng·h/mL/mg/kg |
| Cc1ccc(C(=O)Nc2cc(C(F)(F)F)on2)cc1/C=C/n1cnc2c(NC3CC3)ncnc21 | 7.92 | – | 5.15 | – |
| Cc1ccc(C(=O)Nc2ccc(OC3CCN(C)CC3)c(C(F)(F)F)c2)cc1C#Cc1cnc2ccccn12 | 8.47 | 6.00 | 7.11 | – |
| CCN1CCN(Cc2ccc(NC(=O)c3ccc(C)c(C#Cc4cnc5ccccn45)c3)cc2C(F)(F)F)CC1 | 8.28 | 5.71 | 7.31 | – |
| Cc1ccc(C(=O)Nc2ccc(CN3CCNCC3)c(C(F)(F)F)c2)cc1C#Cc1cnc2ccccn12 | 8.46 | 5.68 | 7.66 | – |
| Cc1ccc(C(=O)Nc2ccc(CN3CCNC(C)C3)c(C(F)(F)F)c2)cc1C#Cc1cnc2ccccn12 (stereo not given) | 8.02 | 5.40 | 6.69 | – |
| Cc1ccc(C(=O)Nc2cc(-n3cnc(CN4CCCC4)c3)cc(C(F)(F)F)c2)cc1C#Cc1cnc2ccccn12 | 8.03 | 5.45 | 6.87 | – |
| Cc1ccc(C(=O)Nc2ccc(CN3CCN(C(C)C)CC3)c(C(F)(F)F)c2)cc1C#Cc1cnc2ccccn12 | 8.10 | 5.78 | 7.37 | – |
| Cc1ccc(C(=O)Nc2ccc(CN3CCN(CCO)CC3)c(C(F)(F)F)c2)cc1C#Cc1cnc2ccccn12 | 8.64 | 5.71 | 7.38 | – |
| Cc1ccc(C(=O)Nc2ccc(CN3CCN(CCF)CC3)c(C(F)(F)F)c2)cc1C#Cc1cnc2ccccn12 | 8.40 | 6.01 | 6.78 | – |
| Cc1ccc(C(=O)Nc2cc(-n3ccnc3CN(C)C)cc(C(F)(F)F)c2)cc1C#Cc1cnc2ccccn12 | 7.96 | 5.15 | 6.60 | – |
| Cc1ccc(C(=O)Nc2ccc(CN3CCN(C)CC3)c(C(F)(F)F)c2)cc1C#Cc1cnc2ccccn12 | 8.44 | 5.80 | 7.59 | Cmax [5]: 149 ng/mL; clearance [6]: 12.5 mL/min/kg; half-life [4]: 24.7 h; AUC (Rattus norvegicus): 386.3 ng·h/mL/mg/kg; bioavailability [7]: 29%; half-life [8]: 2.9 h; half-life [9]: 10.2 h; Cmax [10]: 986 ng/mL; Tmax [11]: 6 h; AUC(0-t) at 24 h [12]: 11300 ng·h/mL; pIC50 (BaF3 [13]): 8.23; Vd [14]: 11 L/kg |
| Cc1ccc(C(=O)Nc2ccc(CN3CCN(C)CC3)c(C(F)(F)F)c2)cc1C#Cc1cnc2c(c1)OCC(=O)N2 | 8.52 | 6.43 | 7.77 | – |
| Cc1ccc(NC(=O)c2ccc(CN3CCN(C)CC3)c(C(F)(F)F)c2)cc1C#Cc1cnc2ccccn12 | 8.70 | 5.74 | 7.30 | – |
| Cc1ccc(C(=O)Nc2cc(CN3CCN(C)CC3)cc(C(F)(F)F)c2)cc1C#Cc1cnc2ccccn12 | 7.96 | 5.27 | 6.63 | – |
| Cc1ccc(C(=O)Nc2ccc(CN3CCOCC3)c(C(F)(F)F)c2)cc1C#Cc1cnc2ccccn12 | 8.68 | 5.13 | 6.14 | – |
| Cc1ccc(C(=O)Nc2ccc(CN3CCN(CCO)CC3)c(C(F)(F)F)c2)cc1C#Cc1cnc2cccnn12 | 8.82 | 5.77 | 7.85 | Cmax [5]: 164 ng/mL; clearance [6]: 25.5 mL/min/kg; half-life [4]: 3.4 h; AUC (Rattus norvegicus): 145.3 ng·h/mL/mg/kg; bioavailability [7]: 22.3%; half-life [8]: 2.4 h; half-life [9]: 3.5 h; Cmax [10]: 1330 ng/mL; Tmax [11]: 4 h; AUC(0-t) at 24 h [12]: 13700 ng·h/mL; Vd [14]: 7.7 L/kg |
| Cc1ccc(C(=O)Nc2ccc(CN3CC[C@H](N(C)C)C3)c(C(F)(F)F)c2)cc1C#Cc1cnc2ccccn12 | 8.27 | 6.09 | 7.24 | – |

| SMILES | pIC50 (BaF3 [1]) | pIC50 (BaF3 [2]) | pIC50 (BaF3 [3]) | further results |
| --- | --- | --- | --- | --- |
| Cc1ccc(C(=O)Nc2ccc(CN3CCN(C)CC3)c(C(F)(F)F)c2)cc1C#Cc1cnc2[nH]ccc2c1 | 8.36 | 5.70 | 7.85 | Cmax [5]: 71 ng/mL; clearance [6]: 20.8 mL/min/kg; half-life [4]: 14.3 h; AUC (Rattus norvegicus): 119 ng·h/mL/mg/kg; bioavailability [7]: 15%; half-life [9]: 10.9 h; Tmax [11]: 6 h; Vd [14]: 19.6 L/kg |
| Cc1ccc(C(=O)Nc2ccc(CN3CCN(C)CC3)c(C(F)(F)F)c2)cc1C#Cc1cnc2nc[nH]c2c1 | 8.47 | 6.05 | 7.38 | Cmax [5]: 32.7 ng/mL; clearance [6]: 34 mL/min/kg; AUC (Rattus norvegicus; BLD = below limit of detection): BLD; half-life [9]: 5.4 h; Tmax [11]: 6 h; Vd [14]: 15.9 L/kg |
| Cc1ccc(C(=O)Nc2ccc(CN3CCN(C)CC3)c(C(F)(F)F)c2)cc1C#Cc1cnc2ncccn12 | 8.00 | 5.82 | 6.30 | – |
| Cc1ccc(C(=O)Nc2ccc(CN3CCN(C)CC3)c(C(F)(F)F)c2)cc1C#Cc1cnc2cnccn12 | 9.05 | 5.89 | 7.89 | Cmax [5]: 57.8 ng/mL; clearance [6]: 48.3 mL/min/kg; half-life [4]: 5 h; AUC (Rattus norvegicus): 57 ng·h/mL/mg/kg; bioavailability [7]: 16.7%; half-life [8]: 2.7 h; half-life [9]: 3.5 h; Cmax [10]: 521 ng/mL; Tmax [11]: 4 h; AUC(0-t) at 24 h [12]: 2690 ng·h/mL; Vd [14]: 14.7 L/kg |
| Cc1ccc(C(=O)Nc2cc(-n3ccnc3)cc(C(F)(F)F)c2)cc1C#Cc1cnc2c(N)cccn12 | 8.07 | 5.00 | 7.14 | Cmax [5]: 234 ng/mL; clearance [6]: 6 mL/min/kg; half-life [4]: 5.2 h; AUC (Rattus norvegicus): 151.9 ng·h/mL/mg/kg; bioavailability [7]: 5.5%; half-life [9]: 15.8 h; Tmax [11]: 1 h; Vd [14]: 8.2 L/kg |
| CC(=O)Nc1cccn2c(C#Cc3cc(C(=O)Nc4cc(-n5ccnc5)cc(C(F)(F)F)c4)ccc3C)cnc12 | 7.96 | 5.13 | 7.36 | – |
| Cc1ccc(C(=O)Nc2cc(-n3ccnc3)cc(C(F)(F)F)c2)cc1C#Cc1cnc2ccccn12 | 8.10 | 5.01 | 6.33 | Cmax [5]: 2350 ng/mL; clearance [6]: 1.33 mL/min/kg; half-life [4]: 21.6 h; AUC (Rattus norvegicus): 5745.9 ng·h/mL/mg/kg; bioavailability [7]: 42.4%; half-life [9]: 9.1 h; Tmax [11]: 6 h; pIC50 (BaF3 [13]): 7.29; Vd [14]: 1 L/kg |
| Cc1ccc(C(=O)Nc2ccc(CN3CCN(C)CC3)c(Cl)c2)cc1C#Cc1cnc2cccnn12 | 8.64 | 5.72 | 6.68 | – |
| Cc1ccc(C(=O)Nc2ccc(CN3CCN(C)CC3)c(C3CC3)c2)cc1C#Cc1cnc2cccnn12 | 8.41 | 5.73 | 6.59 | – |
| Cc1ccc(C(=O)Nc2cccc(C(F)(F)F)c2)cc1C#Cc1cnc2cccnn12 | 8.00 | 5.00 | 5.95 | – |
| Cc1ccc(C(=O)Nc2ccc(CN3CCN(C)CC3)c(C(F)(F)F)c2)cc1CCc1cnc2cccnn12 | 8.37 | 5.22 | 6.53 | – |
| Cc1ccc(C(=O)Nc2ccc(CN3CCN(C)CC3)c(C(F)(F)F)c2)cc1/C=C/c1cnc2cccnn12 | 8.10 | 5.49 | 6.68 | – |
| Cc1ccc(C(=O)Nc2ccc(CN3CCNCC3)c(C(F)(F)F)c2)cc1C#Cc1cnc2cccnn12 | 8.40 | 6.04 | 7.47 | – |
| CN1CCN(Cc2ccc(NC(=O)c3cccc(C#Cc4cnc5cccnn45)c3)cc2C(F)(F)F)CC1 | 8.64 | 5.38 | 7.41 | – |
| CN1CCN(Cc2ccc(NC(=O)c3ccc(Cl)c(C#Cc4cnc5cccnn45)c3)cc2C(F)(F)F)CC1 | 8.60 | 5.73 | 8.07 | Cmax [5]: 302 ng/mL; clearance [6]: 19.7 mL/min/kg; half-life [4]: 20.2 h; AUC (Rattus norvegicus): 673.8 ng·h/mL/mg/kg; bioavailability [7]: 79.2%; half-life [8]: 2.9 h; half-life [9]: 9.9 h; Cmax [10]: 441 ng/mL; Tmax [11]: 6 h; AUC(0-t) at 24 h [12]: 6080 ng·h/mL; Vd [14]: 16.7 L/kg |
| Cc1cn(-c2cc(NC(=O)c3ccc(C)c(/C=C/n4cnc5c(NC6CC6)ncnc54)c3)cc(C(F)(F)F)c2)cn1 | 8.14 | – | – | – |
| Cc1ccc(C(=O)Nc2cc(C(F)(F)F)ccn2)cc1/C=C/n1cnc2c(NC3CC3)ncnc21 | 8.32 | – | – | – |
| Cc1ccc(C(=O)Nc2cc(-n3ccnc3)cc(C(F)(F)F)c2)cc1/C=C/n1cnc2c(NC3CC3)ncnc21 | 8.38 | – | – | – |
| Cc1ccc(C(=O)Nc2ccc(CN3CCN(C)CC3)c(C(F)(F)F)c2)cc1C#Cc1cnc2cccnn12 [PONATINIB] | 8.92 | – | 8.06 | clearance [6]: 10.8 mL/min/kg; half-life [4]: 11 h; AUC (Rattus norvegicus): 278.5 ng·h/mL/mg/kg; bioavailability [7]: 18.2%; half-life [9]: 10.2 h; Tmax [11]: 6 h; Vd [14]: 9.7 L/kg |
